Results from US20110263546A1, “Polyhydroxylated Bile Acids for Treatment of Biliary Disorders” (priority 2008, published 2011).
“Also recorded” adds a separate entry of the source. Read-outs that look alike come from different tables or passages of the source.

Assays:
wild-type mice [1] = conditions: for Infusion dose tolerated without death (highest dosage tested) / MTD compared with that of UDC: wild-type mice, tail vein infusion
Experimental: The maximum tolerated dose of bile acid according to the invention was determined. This test is carried out in two ways. First, as a pilot experiment of bile duct cannulation, a bolus of bile acid was infused into mice under anesthesia to measure its acute toxicity to animals. The responses of mice such as breath rate, bile flow rate, histological changes by H&E staining and the like were recorded. […] Using this tolerance level as a reference point, the acute toxicity of the bile acid was determined.
Bile collected was used for HPLC analysis.

mice = conditions: cited from earlier work
[2] = test system: TKO, bsep−/−, mdr1a/b−/− and wildtype mice; conditions: 0.5% cholate diet, cited from earlier work
[3] = test system: TKO, bsep−/−, mdr1a/b−/− and wildtype mice; conditions: female TKO mice, 0.5% CA diet
Experimental: Mice were maintained in a 12-hour light and dark cycle, at 22° C., with free access to food and water. The mice were fed a normal diet except where specified otherwise in the results.
Chronic toxicity is tested by supplementing the diets of mice (wild-type as well as the hypersensitive bsep KO mice) with 0.1%-0.5% β-muricholate or bile acid according to the invention. Control feeding experiments use cholate as well as ursodeoxycholate.

wild-type mice [4] = test: Bile flow rate (BFR) by bile duct cannulation after tail vein infusion; assay type: in vivo, mouse; conditions: for Bile flow rate, UDC compared with THBAs at similar quantity: 65 μmol/kg body weight infusion; for Bile flow rate on infusion of increasing quantities: 65-400 μmol/kg BW (6β,7αTHBA), 65 and 200 μmol/kg BW (6α,7αTHBA)
Experimental: After 20 minutes of bile flow equilibration, bile was collected into pre-weighed tubes at 5-minute intervals for 10 minutes. A bolus of 3α,6α,7α,12α-tetrahydroxy-5β-cholan-24-oic acid (6α,7αTHBA, pH.7.4-7.6), 3α,6β,7α,12α-tetrahydroxy-5β-cholan-24-oic acid (6β,7αTHBA, pH.7.4-7.6), ursodeoxycholic acid (UDC, pH.7.4-7.6) or cholic acid (100 μmol/kg body weight) was then infused into the tail vein over a 20-second interval. Bile was then further collected through the cannula at 2-minute intervals for 10 or 20 minutes, followed by 10-minute intervals for 30 minutes. The bile flow rate was calculated by weighing the tubes containing the collected bile.

[5] = mice, intravenous bolus (tail vein) infusion under anesthesia

Compound	Maximum tolerated dose (MTD) (wild-type mice [1]; [5])	Infusion dose tolerated without death (highest dosage tested) (wild-type mice [1])	MTD compared with that of UDC (wild-type mice [1])	Bile flow rate, UDC compared with THBAs at similar quantity (wild-type mice [4])	Bile flow rate on infusion of increasing quantities (wild-type mice [4])	other results
C[C@H](CCC(=O)O)[C@H]1CC[C@H]2[C@@H]3[C@@H](O)C[C@@H]4C[C@H](O)CC[C@]4(C)[C@H]3CC[C@]12C [UDC, ursodeoxycholic acid, reference compound]	–	–	–	–	–	Infused dose that caused death (wild-type mice [1]; FVB/NJ, mouse, in vivo): ≥ 70 μmol/kg body weight; Maximum tolerated dose (MTD) (wild-type mice [1]; mouse, in vivo, iv): 65 μmol/kg of body weight; LD50 (mice; mouse, in vivo, iv): ~600 µmol/kg; Oral LD50 relative to intravenous LD50 (mice; rodents): at least 15 times
C[C@H](CCC(=O)O)[C@H]1CC[C@H]2[C@@H]3[C@H](O)C[C@@H]4C[C@H](O)CC[C@]4(C)[C@H]3C[C@H](O)[C@]12C [CA, 3α,7α,12α-trihydroxy-5β-cholan-24-oic acid]	–	–	–	–	–	Time to death ([2]; female TKO mice): within a week; Time to death ([2]; male bsep KO mice): ≤ 10 days; Time until terminally ill or died [3]: 3 to 7 days
C[C@H](CCC(=O)O)[C@H]1CC[C@H]2[C@@H]3[C@H](O)[C@@H](O)[C@@H]4C[C@H](O)CC[C@]4(C)[C@H]3C[C@H](O)[C@]12C [6β,7αTHBA, 3α,6β,7α,12α-tetrahydroxy-5β-cholan-24-oic acid]	> 500 μmol/kg of body weight	500 μmol/kg of body weight	several times higher	similar	corresponding increase in bile flow rate	–
C[C@H](CCC(=O)O)[C@H]1CC[C@H]2[C@@H]3[C@H](O)[C@H](O)[C@@H]4C[C@H](O)CC[C@]4(C)[C@H]3C[C@H](O)[C@]12C [6α,7αTHBA, 3α,6α,7α,12α-tetrahydroxy-5β-cholan-24-oic acid]	> 400 μmol/kg of body weight	400 μmol/kg of body weight	several times higher	similar	corresponding increase in bile flow rate	Effect on bile flow rate (BFR) (wild-type mice [4]; bolus 100 μmol/kg body weight into tail vein): stimulates bile flow rate; also recorded: promotes bile flow
